Assay results reported in patent US20250223268A1, “4-Methylsulfonylbenzamide Compound, Preparation Method, Herbicidal Composition And Use” (Jiangsu Flag Chemical Industry Co., Ltd., priority 2022, published 2025).

Columns and labels:
Experiment in all cases: Greenhouse herbicidal activity assay, post-emergence
Format in all cases: in vivo
Leptochloa chinensis = details: Post-emergence test, rate 150 g a.i./hm^2; grade by fresh weight inhibition rate
From the text: (§1) Post-emergence: Seeds of gramineous weeds (Echinochloa crusgalli, Echinochloa crusgalli var. zelayensis, Echinochloa phyllopogon, Eleusine indica, Digitaria sanguinalis, Leptochloa chinensis, Setaria viridis, Alopecurus japonicus Steud, Beckmannia syzigachne, Polypogon fugax, Alopecurus aequalis, Lolium multiflorum, Poa annua, Aegilops tataschii, Avena fatua, Alopecurus myosuroides, Bromus japonicus), broadleaf weeds (Eclipta prostrata, Amaranthus retroflexus, Rorippa indica, Myosoton aquaticum, Veronica didyma, Galium aparine, Solanum nigrum, Xanthium sibiricum, Conyza canadensis, Sesbania cannabina, Sagittaria trifolia), and Cyperus iria (Cyperus iria, Scirpus juncoides, Cyperus difformis, etc.) were sown in plastic pots (7 cm diameter) with nutrient soil and bottom holes. Crop seeds (including Oryza sativa subsp. indica, Oryza sativa subsp. japonica, Oryza sativa L. var. Glutinosa matsum, Triticum aestivum, Zea mays, Sorghum bicolor, Setaria italica, Glycine max, Gossypium hirsutum, Brassica napus, Arachis hypogaea) were sown in plastic pots (10 cm diameter) with nutrient soil and bottom holes. After sowing, the pots were placed in the growth chamber until the plants reached the 3-6 leaf stage for foliar spraying. Post-treatment, the materials were air-dried naturally and returned to the growth chamber. Results were assessed 14-21 days later.
(§2) • A: Fresh weight inhibition rate≥80% to 100%; • B: Fresh weight inhibition rate[…] to <80%; • C: Fresh weight inhibition rate≥40% to <60%; • D: Fresh weight inhibition rate≥20% to <40%; • E: Fresh weight inhibition rate<20%; • NT: Not tested.

Eclipta prostrata = details: Post-emergence test, rate 150 g a.i./hm^2, grade by fresh weight inhibition rate; for pest or weed control at 150 g/ha: Eclipta prostrata, read-out: Control efficacy grade, Eclipta prostrata
From the text: as §1, §2

Cyperus iria = details: Post-emergence test, rate 150 g a.i./hm^2, grade by fresh weight inhibition rate; for pest or weed control at 150 g/ha: Cyperus iria, read-out: Control efficacy grade, Cyperus iria
From the text: as §1, §2

## C#CC[S+]([O-])c1c(S(C)(=O)=O)ccc(C(=O)Nc2nnc(C)o2)c1Cl (racemic) [Compound 3-148]
Leptochloa chinensis
  Control efficacy grade, Leptochloa chinensis: A (Fresh weight inhibition rate≥80% to 100%)

## Cc1nnc(NC(=O)c2ccc(S(C)(=O)=O)c([S+]([O-])CC(F)(F)C(F)(F)F)c2Cl)o1 (racemic) [Compound 3-173]
Leptochloa chinensis
  Control efficacy grade, Leptochloa chinensis: A (Fresh weight inhibition rate≥80% to 100%)

## C=CC[S+]([O-])c1c(S(C)(=O)=O)ccc(C(=O)Nc2nnc(C(C)C)o2)c1Cl (racemic) [Compound 3-571]
Eclipta prostrata
  Control efficacy grade, Eclipta prostrata: A (Fresh weight inhibition rate≥80% to 100%)
Cyperus iria
  Control efficacy grade, Cyperus iria: A (Fresh weight inhibition rate≥80% to 100%)

## CCC(C)Sc1c(S(C)(=O)=O)ccc(C(=O)Nc2nonc2C)c1Cl (racemic) [Compound 4-16]
Cyperus iria
  Control efficacy grade, Cyperus iria: A (Fresh weight inhibition rate≥80% to 100%)

## CCCS(=O)(=O)c1c(S(C)(=O)=O)ccc(C(=O)N(C)c2nnnn2C)c1Cl [Compound 1-101]
Eclipta prostrata
  Control efficacy grade, Eclipta prostrata: A (Fresh weight inhibition rate≥80% to 100%)
Leptochloa chinensis
  Control efficacy grade, Leptochloa chinensis: B (Fresh weight inhibition rate≥260% to <80%)

## Cc1nnc(NC(=O)c2ccc(S(C)(=O)=O)c(SCc3ccccc3)c2Cl)o1 [Compound 3-67]
Cyperus iria
  Control efficacy grade, Cyperus iria: A (Fresh weight inhibition rate≥80% to 100%)

## Cc1nnc(NC(=O)c2ccc(S(C)(=O)=O)c(SC3CCCCC3)c2Cl)o1 [Compound 3-92]
Cyperus iria
  Control efficacy grade, Cyperus iria: A (Fresh weight inhibition rate≥80% to 100%)

## CS(=O)(=O)c1ccc(C(=O)Nc2nnco2)c(Cl)c1S(=O)(=O)CCCl [Compound 3-382]
Leptochloa chinensis
  Control efficacy grade, Leptochloa chinensis: A (Fresh weight inhibition rate≥80% to 100%)

## CCCCSc1c(S(C)(=O)=O)ccc(C(=O)Nc2nnc(CC)o2)c1Cl [Compound 3-393]
Leptochloa chinensis
  Control efficacy grade, Leptochloa chinensis: B (Fresh weight inhibition rate≥260% to <80%)
Cyperus iria
  Control efficacy grade, Cyperus iria: A (Fresh weight inhibition rate≥80% to 100%)

## CCCCS(=O)(=O)c1c(S(C)(=O)=O)ccc(C(=O)Nc2nnc(CC)o2)c1Cl [Compound 3-397]
Eclipta prostrata
  Control efficacy grade, Eclipta prostrata: A (Fresh weight inhibition rate≥80% to 100%)
Cyperus iria
  Control efficacy grade, Cyperus iria: A (Fresh weight inhibition rate≥80% to 100%)

## CCc1nnc(NC(=O)c2ccc(S(C)(=O)=O)c(S(=O)(=O)CCCl)c2Cl)o1 [Compound 3-498]
Leptochloa chinensis
  Control efficacy grade, Leptochloa chinensis: A (Fresh weight inhibition rate≥80% to 100%)

## CCCSc1c(S(C)(=O)=O)ccc(C(=O)Nc2nnc(C(C)C)o2)c1Cl [Compound 3-499, 2-chloro-N-(5-isopropyl-1,3,4-oxadiazol-2-yl)-4-(methylsulfonyl)-3-(propylthio)benzamide]
Cyperus iria
  pest or weed control at 150 g/ha: 80 to 100%

## CCCS(=O)(=O)c1c(S(C)(=O)=O)ccc(C(=O)Nc2nonc2C)c1Cl [Compound 4-5, 2-chloro-N-(4-methyl-1,2,5-oxadiazol-3-yl)-4-(methylsulfonyl)-3-(propylsulfonyl)benzamide]
Eclipta prostrata
  pest or weed control at 150 g/ha: 80 to 100%
Cyperus iria
  pest or weed control at 150 g/ha: 80 to 100%

## Cc1nonc1NC(=O)c1ccc(S(C)(=O)=O)c(SC(C)C)c1Cl [Compound 4-6]
Leptochloa chinensis
  Control efficacy grade, Leptochloa chinensis: A (Fresh weight inhibition rate≥80% to 100%)

## Cc1nonc1NC(=O)c1ccc(S(C)(=O)=O)c(SCC2CC2)c1Cl [Compound 4-32, 2-chloro-3-((cyclopropylmethyl)thio)-N-(4-meth 1-1,2,5-oxadiazol-3-yl)-4-(methylsulfonyl)benzamide]
Cyperus iria
  pest or weed control at 150 g/ha: 80 to 100%

## Cc1nonc1NC(=O)c1ccc(S(C)(=O)=O)c(S(=O)(=O)CC2CC2)c1Cl [Compound 4-36, 2-chloro-3-((cyclopropylmethyl)sulfonyl)-N-(4-methyl-1,2,5-oxadiazol-3-yl)-4-(methylsulfonyl)benzamide]
Cyperus iria
  pest or weed control at 150 g/ha: 80 to 100%

## CCC[S+]([O-])c1c(S(C)(=O)=O)ccc(C(=O)N(C)c2nonc2C)c1Cl (centres unmarked) [Compound 4-272, 2-chloro-N-methyl-N-(4-methyl-1,2,5-oxadiazol-3-yl)-4-(methylsulfonyl)-3-(propylsulfinyl)benzamide]
Eclipta prostrata
  pest or weed control at 150 g/ha: 80 to 100%
Cyperus iria
  pest or weed control at 150 g/ha: 80 to 100%
